Assay results reported in patent publication US20250134870A1, “PATHWAY MODULATOR, PHARMACEUTICAL COMPOSITION HAVING SAME, USE THEREOF, AND THERAPEUTIC METHOD USING SAME” (Jiangsu Yahong Meditech Co., Ltd., priority 2021, published 2025).

Tests used:
[1] = Body weight and weight change rate of EAU rats (Example 6); assay type: in vivo, Lewis rats; details: 0.4 mg/kg PO QD
From the text: Wherein, Day 0 referred to the day of immunization. The body weight of each rat was monitored twice a week after immunization.
(§1) Dosing started from Day 0 accurately according to the animal body weight for a total of 16 days.

[2] = Body weight and spleen weight in IMQ-induced psoriasis mice (Example 8); assay type: in vivo, Balb/c mice; details: 2 mg/kg topical QD × 7 days (G4)
From the text: 4) Spleen samples were collected and weighed (FIG. 23).
Body weight was monitored daily throughout the study. Continuous use of IMQ cream could reduce the mean body weight of the solvent group. […] However, there was no statistically significant difference between the treatment and solvent groups (FIG. 21)

[3] = test system: imiquimod (IMQ)-induced psoriasis; test: Imiquimod (IMQ)-induced psoriasis in mice: erythema, scales, thickness, total score, AUC (Example 8); assay type: in vivo, Balb/c mice; parameters: key to erythema score / scales score / thickness score: 0 = none, 1 = mild, 2 = moderate, 3 = obvious/severe; key to total score of erythema + scales + thickness: sum of three 0-3 scores (erythema + scales + thickening), 0-9; details: for erythema score / scales score: 2 mg/kg topical QD; for thickness score / total score of erythema + scales + thickness: positive control group
Protocol: All mice were shaved with a pet shaver to get an area of 2×3 cm on the back one day before the start of the experiment.
65 animals were randomly divided into groups according to body weight, and the dosing regimen was as follows.
Imiquimod (IMQ) cream: 62.5 mg of IMQ cream for each mouse in G2 to G7; Dexamethasone (DEX) ointment: 70 mg of ointment for each mouse in G4;
Tofacitinib: Tofacitinib was dissolved in dimethyl sulfoxide to 5 mg/mL, and 50 μL was added to IMQ cream for daily treatment.
Mice in Groups 2 to 7 received daily topical doses of 62.5 mg of IMQ cream on their shaved back from Day 0 to Day 7.
Dosing of the test compounds and reference substance was carried out according to Table 29 for 7 consecutive days.
To assess the severity of inflammation of skin on the back, the skin on the back was scored according to Table 30. Erythema, scales and thickening were scored independently on a scale of 0 to 3, 0, none; 1. mild; 2. moderate; 3. obvious/severe.
The inhibition rate was calculated according to the following formula: Inhibition rate=[AUC (solvent)−AUC (treatment)]/AUC (solvent)×100%. Wherein, solvent referred to the solvent group corresponding to the route of administration.

[4] = test system: IRBP R16-induced experimental autoimmune uveoretinitis (EAU); test: Bovine IRBP R16-induced experimental autoimmune uveoretinitis (EAU): clinical score, AUC, incidence (Example 6); assay type: in vivo, Lewis rats; details: for Incidence rate (%): 0.4 mg/kg PO QD
Protocol: On Day-1 (i.e., the day before immunization, hereinafter), 60 rats were randomly divided into 6 groups (n=10) based on body weight (see Table 18). On Day 0, rats in Groups 2 to 6 were anesthetized with isoflurane, followed by subcutaneous injection of a total of […] of emulsion resulting from IRBP R16 and CFA emulsified at a 1:1 v/v ratio, on both thighs (50 μL at each site) and tail head (100 μL), respectively.
From Day 0 after immunization, the eyes of rats were checked daily with a flashlight by gently opening the upper and lower eyelids of the test rats, and the incidence of disease was recorded. Clinical symptoms were scored in a blind manner from the onset of disease to the end of the study according to the criteria listed in Table 17.
as §1
The results were expressed as “mean±standard error”. Graphpad Prism or SPSS was used for statistical analysis, and p<0.05 was considered statistically significant.

Structure (SMILES): C[C@@H]1C[C@H]2[C@@H]3CCC4=CC(=O)C=C[C@]4(C)[C@@]3(F)[C@@H](O)C[C@]2(C)[C@@]1(O)C(=O)CO [Dexamethasone]
- Rat body weight ([1]; Day 2): 174.65 g
- Weight change rate (%) ([1]; Day 2): −7.26%
- Rat body weight ([1]; Day 6): 166.65 g
- Weight change rate (%) ([1]; Day 6): −11.53%
- Rat body weight ([1]; Day 9): 164.05 g
- Weight change rate (%) ([1]; Day 9): −12.92%
- Rat body weight ([1]; Day 13): 162.10 g
- Weight change rate (%) ([1]; Day 13): −13.99%
- Rat body weight ([1]; Day 16): 161.29 g
- Weight change rate (%) ([1]; Day 16): −14.44%
- Rat body weight ([1]; Day −1): 188.46 g
- Weight change rate (%) ([1]; Day −1): 0.00%
- body weight (weight loss) [2]: weight loss was more dramatic
- erythema score ([3]; Day 0): 0
- scales score ([3]; Day 0): 0
- thickness score ([3]; Day 0): 0
- total score of erythema + scales + thickness ([3]; Day 0): 0
- erythema score ([3]; Day 1): 0
- scales score ([3]; Day 1): 0
- thickness score ([3]; Day 1): 0
- total score of erythema + scales + thickness ([3]; Day 1): 0
- erythema score ([3]; Day 2): 0
- scales score ([3]; Day 2): 0
- thickness score ([3]; Day 2): 0
- total score of erythema + scales + thickness ([3]; Day 2): 0
- erythema score ([3]; Day 3): 0.2
- scales score ([3]; Day 3): 0
- thickness score ([3]; Day 3): 0
- total score of erythema + scales + thickness ([3]; Day 3): 0
- erythema score ([3]; Day 4): 0.1
- scales score ([3]; Day 4): 0.2
- thickness score ([3]; Day 4): 0
- total score of erythema + scales + thickness ([3]; Day 4): 0.3
- erythema score ([3]; Day 5): 0.1
- scales score ([3]; Day 5): 0.2
- thickness score ([3]; Day 5): 0
- total score of erythema + scales + thickness ([3]; Day 5): 0.3
- erythema score ([3]; Day 6): 0
- scales score ([3]; Day 6): 0.2
- thickness score ([3]; Day 6): 0
- total score of erythema + scales + thickness ([3]; Day 6): 0.2
- erythema score ([3]; Day 7): 0
- scales score ([3]; Day 7): 0.1
- thickness score ([3]; Day 7): 0
- total score of erythema + scales + thickness ([3]; Day 7): 0.1
- inhibition at 2 mg/kg ([3]; Mus musculus, 168 h, 2 mg/kg topical QD × 7 days, vs corresponding solvent group, read-out: inhibition rate (AUC of total clinical score)): 97%
- Area under the curve (AUC) of clinical score ([4]; 0.4 mg/kg PO QD × 16 days): 7.68
- Incidence rate (%) ([4]; Day 0): 0%
- Incidence rate (%) ([4]; Day 1): 0%
- Incidence rate (%) ([4]; Day 2): 0%
- Incidence rate (%) ([4]; Day 3): 0%
- Incidence rate (%) ([4]; Day 4): 0%
- Incidence rate (%) ([4]; Day 5): 0%
- Incidence rate (%) ([4]; Day 6): 0%
- Incidence rate (%) ([4]; Day 7): 10%
- Incidence rate (%) ([4]; Day 8): 20%
- Incidence rate (%) ([4]; Day 9): 100%
- Incidence rate (%) ([4]; Day 10): 100%
- Incidence rate (%) ([4]; Day 11): 90%
- Incidence rate (%) ([4]; Day 12): 90%
- Incidence rate (%) ([4]; Day 13): 90%
- Incidence rate (%) ([4]; Day 14): 90%
- Incidence rate (%) ([4]; Day 15): 90%
- Incidence rate (%) ([4]; Day 16): 90%
- Incidence rate (%) ([4]; Day −1): 0%
- inhibition at 0.4 mg/kg ([4]; Rattus norvegicus, 384 h, 0.4 mg/kg PO QD × 16 days, vs model control, read-out: Inhibition rate of clinical score AUC): 84.5%
